Consider two compounds from PMC5641094, “A peptide antagonist of Prep1-p160 interaction improves ceramide-induced insulin resistance in skeletal muscle cells” (Oncotarget, 2017).

Where two headings read alike, the source gives them in different places.

For one series, the system named is p160 mRNA. Put plainly: Real-time RT-PCR of p160 mRNA in L6 cells. It is filed as cell-based, rat. The conditions noted are these: C2cer 10μM, 18h, normalized to GAPDH. The protocol:
Figure 2 Effect of ceramides on Prep1 and p160 mRNA expression and of Prep1-p160 coprecipitation L6 cells were treated with C2cer (10μM) for 18h and Prep1 (A) or p160 (B) mRNA levels were analyzed by real-time RT-PCR analysis. Data were normalized by the amount of GAPDH mRNA, used as internal control. Bars represent the mean ± SD of three independent experiments, each performed in triplicate. (C) L6 cells were treated with cycloheximide (CHX) at 40μg/mL concentration for 18h and the lysates were analyzed by Western blot with anti-p160 and beta-actin. The autoradiograph shown is representative of three different experiments and subjected to densitometric analysis. (D) Protein lysates from L6 cells treated with C2cer as indicated, were immunoprecipitated with Prep1 antibody and immunoblotted with p160 or Prep1 antibodies. The autoradiograph shown is representative of three different experiments and subjected to densitometric analysis. Asterisks denote statistically significant differences (*p<0.05; **p<0.01).
Total cellular RNA was isolated from L6 cells by using the RNeasy kit (QIAGEN Sciences, Germany), according to manufacturer instructions. 1μg of cell RNA was reverse-transcribed using Superscript III Reverse Transcriptase (Life Technologies Carlsbad, CA, USA). PCR reactions were analyzed using IQTM SYBR Green Supermix (Bio-Rad, Hercules, CA). […]
Background: Real-time PCR tracks product formation cycle by cycle.

The test system of the next series is L6 cells. The series can be described thus: Cell toxicity in L6 cells. Format: cell-based, rat. Particulars: highest concentration 100μM, data not shown.
For series [1], the target named is T1, p160_20-160/Prep1_45-155 binding (Homo sapiens, UniProt Q9BQG0).
T1 construct: pre-incubating the His6-tagged-p160_20-160 at 0.25μM with peptides; made in house
T1 sequence (Q9BQG0 20-160): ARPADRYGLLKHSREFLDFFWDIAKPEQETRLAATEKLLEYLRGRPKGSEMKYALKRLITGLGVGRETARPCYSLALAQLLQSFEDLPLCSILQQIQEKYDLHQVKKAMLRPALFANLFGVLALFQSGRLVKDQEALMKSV
Put plainly: ELISA-like competition of p160_20-160/Prep1_45-155 binding. An excerpt:
To address the significance of the association between Prep1 and p160 mediated by C2cer, we generated a synthetic inhibitor of the Prep1/p160 interaction. […] The synthetic peptide covering such stretch of residues was therefore chosen to generate a potential inhibitor. […] Thus, we designed and chemically synthesized a peptide spanning residues 59-72, hereafter Prep1(59-72), which comprises the predicted α-helix and a short loop at the N-terminus (Supplementary Figure 2A, upper panel). We also designed and prepared an additional peptide with a slightly longer N-terminal end, named Prep1(54-72) (Supplementary Figure 2A, lower panel), to increase the probability of obtaining a molecule with helical features. […] In order to test the affinity of Prep1 synthetic peptides to p160 protein, ELISA-like experiments were developed where N-terminally biotinylated peptide variants were added to p160_20-160 – coated 96-well plates. As shown in Figure 3A either variants bound p160_20-160 domain in a dose-dependent and saturable manner. […]
(§1) Figure 3 Design and in vitro effects of Prep1(54-72) peptide on Prep1/p160 association (A) Binding curves of Prep1(59-72) and Prep1(54-72) peptides to p160_20-160 by ELISA-like assays. […] (C) L6 cells were incubated with increasing concentrations of the fluorescein-conjugated peptide (FITC-Prep1(54-72)) and peptide uptake was detected by FACS analysis of fluorescein-labeled cells. […] Protein lysates were immunoprecipitated with Prep1 antibodies and analyzed by Western blot using antibodies for p160 or for Prep1. […] The blots were detected by ECL and autoradiography. […]
ELISA experiments were performed using an integrated platform for High-Throughput Screening (Hamilton Robotics, Bonaduz, CH) comprising a fully equipped Starlet 8 channel liquid handler, a robotic arm, a washer and a multi-wavelength plate reader. […] In particular, several concentrations of biotinylated peptides at several concentrations were added to a plate coated with p160_20-160 (0.1μM) and binding was detected with streptavidin-HRP. […] The binding was detected by anti-His HRP-conjugated antibody. […]
On the technique in general: ELISA stands for enzyme-linked immunosorbent assay.

A further series deals with T2, p160_20-160 (Homo sapiens, UniProt Q9BQG0).
T2 construct: were added to a plate coated with p160_20-160 (0.1μM); His6; made in house
T2 sequence (Q9BQG0 20-160): T1 sequence (Q9BQG0 20-160)
The series can be described thus: ELISA-like direct binding of biotinylated Prep1 peptides to coated p160_20-160. Particulars: N-terminally biotinylated peptide variants; plate coated with p160_20-160 (0.1μM); streptavidin-HRP; one-site binding fit; triplicate, performed at least twice.
Description: To address the significance of the association between Prep1 and p160 mediated by C2cer, we generated a synthetic inhibitor of the Prep1/p160 interaction. […] The synthetic peptide covering such stretch of residues was therefore chosen to generate a potential inhibitor. […] Thus, we designed and chemically synthesized a peptide spanning residues 59-72, hereafter Prep1(59-72), which comprises the predicted α-helix and a short loop at the N-terminus (Supplementary Figure 2A, upper panel). […]
as §1
ELISA experiments were performed using an integrated platform for High-Throughput Screening (Hamilton Robotics, Bonaduz, CH) comprising a fully equipped Starlet 8 channel liquid handler, a robotic arm, a washer and a multi-wavelength plate reader. […] The binding was detected by anti-His HRP-conjugated antibody. […]

Turning to `CCCCCCCCCCCCC/C=C/[C@@H](O)[C@H](CO)NC(C)=O` [C2cer, D-erythro-Sphingosine, N-Acetyl-, reference compound], in the series on p160 mRNA, the “effect on p160 mRNA levels” value is “not affected”. In addition, the “toxicity for the cells” value with L6 cells is “slightly toxic”.
A word on the Kd: it is a measure of binding affinity in units of concentration. Low values mean tighter binding, high ones weaker binding. On to “Ac-KQAIYRHPLFPLLALLFEK-NH2 [Prep1(54-72)]”, for which the IC50 in series [1] (His6-p160_20-160 0.25μM pre-incubated with peptide 0.001-10μM, plate coated with Prep1_45-155 (0.10μM), anti-His HRP, average of three experiments, read-out: IC50, inhibition of p160_20-160/Prep1_45-155 binding) was 200 nM; in series [1] (as restated in the discussion, read-out: IC50, potency in vitro as complex inhibitor), ~200 nM. The affinity on p160_20-160, expressed as Kd, was 180 nM.
